The test system of this experiment is Mycobacterium tuberculosis H37Rv growth inhibition, no glycerol. Put plainly: Confirmatory growth inhibition assay, Mycobacterium tuberculosis H37Rv, absence of glycerol (AID 449764).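 As to all read-outs here: growth read after 7 days of incubation.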 As to conditions: for IC90: measured here: IC90 growth inhibition.

These results are taken from PubChem BioAssay AID449764 (Southern Research Specialized Biocontainment Screening …, 2010).

Where only a bound is given, the exact number is not on record here.

Broadly, the IC50 is the concentration that gives 50% inhibition. As a reminder, the IC90 is the concentration at which the effect reaches the 90% level. Low values mean an effect from little substance, high ones a need for much substance. As for `S=c1nc[nH]c2nc[nH]c12`, the IC50 was 3.32 µM and the concentration for an effect of 90% (IC90) came to 5.19 µM.
`Cn1c(=O)n(Cc2ccccc2)c(=O)c2c1nc1n2CCCN1C1CCCCC1` showed an IC90 of more than 100 µM.
Take `Cc1nc(NCCc2ccccc2)c2oc3ccccc3c2n1`: the IC50 was 7.3 µM and the IC90 amounted to 13.3 µM.
As to `O=C(NC1CCCC(C(F)(F)F)C1)c1ccc([N+](=O)[O-])o1` (configuration not stated), the IC50 was 17.9 µM and the IC90 is 28.3 µM.
For `Cn1ccnc1C(=O)C1CCCN(Cc2cn[nH]c2-c2ccc(-c3ccccc3)cc2)C1` (configuration not stated) the same measures were 77.1 µM and 99.4 µM.
With `c1ccc(C2[C@H]3CN(CC4CCCCC4)[C@H](c4ccccc4)C34CC2(c2cccnc2)C4)cc1` (some centres not stated), the IC50 is 34.2 µM and the IC90 came out at 45.1 µM.
For `CN1C(C(=O)NCc2ccc(OC(F)(F)F)cc2)CC2Cn3c(nc4cc(Cl)c(Cl)cc43)C21` (configuration not stated) the same measures were 44.2 µM and 70.4 µM.
For `Cc1ccc(C2(c3ccc(C)cc3)CC2C(=O)Nc2ccc([N+](=O)[O-])cc2O)cc1` (configuration not stated) the same measures were 18.8 µM and 23.6 µM.
With `CSCCC(=O)N1CCCC(CNC(=O)c2ccc(-c3ccccc3)cc2)C1` (configuration not stated), the half-inhibitory concentration (IC50) is 41.5 µM and the IC90 came out at 70.6 µM.
As to `S=C1SCN(Cc2ccco2)CN1Cc1ccco1`, the IC50 is 43.1 µM and the IC90 came to 54.2 µM.
Turning to `c1ccc(Nc2nc(N3CCCCC3)nc(N3CCNCC3)n2)cc1`, the IC50 was 44.4 µM and the IC90 was 69.4 µM.
In the case of `C[C@@H]1CCCCCCCCC(=O)OCCN[C@H](C)CCCCCCCCC(=O)OCCN[C@H](C)CCCCCCCCC(=O)OCCN1`, the IC50 is 31.8 µM and the IC90 came to 43.3 µM.
In the same order, the values of `Cc1cc(N2CCN(c3ccc(C(F)(F)F)cc3[N+](=O)[O-])CC2)c2ccccc2n1` are 22.2 µM and 24.9 µM.
In the same order, the values of `Cc1occc1-c1nnc(SCC(=O)NCCc2ccccc2)o1` are 16.6 µM and 25.2 µM.
With `CCCCC(O)(CCCC)C(=O)NN(C(=O)CCl)c1ccccc1`, the IC50 is 11.1 µM and the IC90 is 22.8 µM.
In the same order, the values of `COC(=O)c1ccc(COC(=O)CCc2nc(-c3ccccc3)c(-c3ccccc3)o2)cc1` are 44.9 µM and more than 100 µM.
In the same order, the values of `CCCCn1c(SCc2ncc(-c3ccccc3)o2)nc2cc(S(N)(=O)=O)ccc21` are 5.25 µM and 8.34 µM.
On to `CCOc1cc(NC(=O)CCl)c(OCC)cc1NC(C)=O`, for which the IC50 was 0.95 µM and the IC90 was determined as 51.8 µM.
On to `CN(C)CCNc1ncnc2c1sc1nc(-c3ccccc3)c3c(c12)CCCC3`, for which the IC50 is 22.5 µM and the IC90 amounted to 24.2 µM.
For `CO[C@@H]1[C@@H](OC(N)=O)[C@@H](O)C(Oc2ccc3c(O)c(NC(=O)c4ccc(O)c(CC=C(C)C)c4)c(=O)oc3c2C)OC1(C)C` (some centres not stated) the same measures were 9.33 µM and 14.5 µM.
In the same order, the values of `COc1cccc(C(=O)NC2CC3CCCC(C2)N3CC(=O)Nc2ccc(N(C)C)cc2)c1` (configuration not stated) are 21.8 µM and 24.4 µM.
For `c1ccc(-c2c3ccccc3nc3[nH]c4ccccc4c23)cc1` the same measures were 96.3 µM and more than 100 µM.
In the case of `Cc1ccc(-c2noc(C3CCCN(C(=O)c4ccc(C(C)(C)C)cc4)C3)n2)o1` (configuration not stated), the IC50 is 53.9 µM and the IC90 was 82.6 µM.
Regarding `Cc1cc(N2CCC(C)CC2)nc(-n2nc(C)cc2C)n1`, the IC50 was 0.97 µM and the IC90 was found to be 2.97 µM.
As for `CCCc1ccc(C2=Nn3c(nnc3C(C)C)SC2)cc1`, the IC50 is 29.6 µM and the IC90 came to 51.1 µM.
For `CN1CCN(C2Cc3ccccc3Sc3cc(C(F)(F)F)ccc32)CC1` (configuration not stated) the same measures were 14 µM and 17.4 µM.
For `COc1ccc(-c2csc3nc(-c4ccccc4OC)oc(=O)c23)cc1` the same measures were 5.44 µM and 22.1 µM.
In the same order, the values of `CNc1ncnc2c1ncn2[C@@H]1O[C@H](CO)[C@@H](O)[C@H]1O` are 3.97 µM and 9.18 µM.
As to `CCC(C)N1CCC2(CC1)N=c1c(c3c4c5c(C)c(O)c3c(O)c1=NC(=O)C(C)=CC=C[C@H](C)[C@H](O)[C@@H](C)[C@@H](O)[C@@H](C)[C@H](OC(C)=O)[C@H](C)[C@@H](OC)C=CO[C@@](C)(O5)C4=O)N2` (some centres not stated), the IC50 was less than 0.2 µM and the IC90 is less than 0.2 µM.
As for `c1ccc(CSc2ccc(-c3ccccn3)nn2)cc1`, the IC50 is 89.4 µM and the IC90 is 94.2 µM.
`CCOc1ccc(-c2cc(C(=O)NCCCn3ccnc3)c3cc(Br)ccc3n2)cc1`: the IC50 is 24.9 µM and the IC90 was determined as 27.6 µM.
For `Cn1cnc([N+](=O)[O-])c1Sc1ccc(Br)cc1` the same measures were 19.6 µM and 26.1 µM.
For `CCOC(=O)c1cc(-c2ccc(N3CCOCC3)cc2)nn1-c1ccccc1` the same measures were 27.9 µM and 58.1 µM.
`O=C1NCC(c2ccccc2)C1C(=O)N/N=C\c1ccc(-c2ccc(Cl)c(Cl)c2)o1` (configuration not stated): the IC90 was more than 100 µM.
Turning to `CCOc1ccc(/C=N/Nc2ccc(Cl)nn2)c(O)c1`, the IC50 was 5.87 µM and the IC90 was found to be 6.71 µM.
Turning to `C[n+]1c(-c2ccccc2)cc(CCCCc2cc(-c3ccccc3)[n+](C)c(-c3ccccc3)c2)cc1-c1ccccc1`, the IC50 is 24.8 µM and the IC90 was found to be 28.3 µM.
As to `C=CCOc1ccc(C2=NOC(C(=O)Nc3ccc4c(c3)OCCO4)C2)cc1` (configuration not stated), the IC50 is 41.4 µM and the IC90 was determined as 60 µM.
As for `Cc1cccc(/C=c2\s/c(=C\C(=O)C(C)(C)C)[nH]c2=O)c1`, the IC50 was 12.4 µM and the IC90 stood at 31.7 µM.
As for `O=C(Nc1cc(C(F)(F)F)ccc1-n1cncn1)c1ccc([N+](=O)[O-])o1`, the IC50 is 37 µM and the IC90 was determined as 54.2 µM.
In the same order, the values of `CC(C)(C)C1CCc2sc(-c3nnc(CCl)o3)cc2C1` (configuration not stated) are 5.74 µM and 19.5 µM.
For `CCOC(=O)c1cnc(-n2nc(C)cc2C)nc1NNc1cc(C)nc(-c2ccccc2)n1` the same measures were 74.6 µM and 93.7 µM.
For `CCc1ccc2c(c1)/C(=C/C(=O)c1cccs1)C(=O)N2` the same measures were 2.55 µM and 4.12 µM.
On to `Cc1cccc2c1N(CCCOc1ccc(C(C)(C)C)cc1)C(=O)C2=O`, for which the IC50 was 17.4 µM and the IC90 was found to be 20.1 µM.
In the same order, the values of `Cc1c2c(nc3ccccc13)CCC(C)C2` (configuration not stated) are 21.7 µM and 37.1 µM.
For `Cc1nc2sccn2c(=O)c1CCN1CCC(=C(c2ccccc2)c2ccc(F)cc2)CC1` the same measures were 35.8 µM and 51.2 µM.
In the same order, the values of `Cc1cc(OCc2cc(C(=O)N(C)CCc3cnn(C)c3)no2)cc(C)c1Cl` are 34.5 µM and 56.2 µM.
For `Clc1ccc(CNc2nc(CN3CCOCC3)nc3scc(-c4ccccc4)c23)cc1`, the IC50 was 33.5 µM and the IC90 came to 42.1 µM.
In the same order, the values of `Cc1ccc(CN2CC(C(=O)OCc3ccccc3Cl)CC2=O)cc1` (configuration not stated) are 11.1 µM and 29.6 µM.
Turning to `CCCOc1ccc(C(=O)NC(=S)NCc2cccnc2)cc1`, the IC50 was 35.1 µM and the IC90 worked out at 45.7 µM.
For `CC(=O)c1c(C)n(C)c2ccc(OC(=O)c3ccc([N+](=O)[O-])cc3)cc12`, the IC50 was 19.8 µM and the concentration for an effect of 90% (IC90) was more than 100 µM.
For `O=[N+]([O-])c1ccc(C2CC(c3ccccc3)=Nc3ccccc3S2)cc1` (configuration not stated) the same measures were 6.28 µM and 7.31 µM.
In the same order, the values of `C=CCOC(=O)COc1ccc2c(C)c(CC)c(=O)oc2c1` are 1.49 µM and 1.68 µM.
For `C/C(=C1/C(=O)N(c2ccc([N+](=O)[O-])cc2)N=C1c1ccccc1)N(C)C` the same measures were 28.2 µM and 37 µM.
For `O=C(Nc1nnc(-c2ccccc2Cl)o1)c1nc2ccccc2s1`, the IC50 was 6.33 µM and the IC90 was determined as 7.21 µM.
In the same order, the values of `CC(=O)c1ccc(NC(=O)c2cc(CC(C)C)on2)cc1` are 12 µM and 13.8 µM.
For `Cc1ccc(NC(=S)N(CCCN2CCCC2)Cc2cccn2Cc2ccc(Cl)cc2)cc1C` the same measures were 75.5 µM and more than 100 µM.
Consider `CC[N+](C)(CC)CCCCOc1ccc2c(c1)C(=O)c1cc(OCCCC[N+](C)(CC)CC)ccc1-2`, for which the IC50 was 1.68 µM and the IC90 came out at 2.11 µM.
As to `Nc1[nH]n2c(=O)cc(-c3ccccc3)nc2c1N=Nc1ccc2c(c1)OCO2`, the IC50 was 33.2 µM and the IC90 stood at 50.2 µM.
For `Clc1ccc2c(c1)CCc1cccnc1C2=C1CCNCC1` the same measures were 32.9 µM and 38.8 µM.
Consider `O=C(CSc1ccc(Cl)cc1)N1CCC(c2nc3ccccc3s2)CC1`, for which the IC50 is 53.8 µM and the IC90 came out at 68.3 µM.
On to `CC(C)OC(=O)CCCCCN1C(=O)CSC1=S`, for which the half-maximal inhibitory concentration (IC50) was 11.5 µM and the IC90 was found to be 19.2 µM.
On to `C=CCn1c(O)c(N=Nc2ccccc2O)c2ccccc21`, for which the IC50 is 16.4 µM and the IC90 was 22.4 µM.
Turning to `COC(=O)c1cc(=O)n(-c2ccc(F)cc2)c(=Nc2ccc(F)cc2)s1`, the IC50 was 0.46 µM and the IC90 is 1.24 µM.
In the same order, the values of `CCCCC(=O)Nc1sc2c(c1C(=O)OCC)CCC(C=O)=C2Cl` are 38.8 µM and more than 100 µM.
In the same order, the values of `O=C(C[n+]1cc(-c2ccc(Cl)cc2)n2c1CCC2)Nc1nc(-c2ccccc2)cs1` are 23.4 µM and 26.7 µM.
For `Cc1ccc(NC(=O)Cc2ccc(-c3ccccc3)cc2)nc1` the same measures were 86.6 µM and more than 100 µM.
With `O=C1c2ccccc2CC1Sc1nnc(-c2ccncc2)o1` (configuration not stated), the IC90 is more than 100 µM.
In the case of `CCCC12CN3CC(CCC)(CN(C1)C3c1ccccn1)C2=O` (configuration not stated), the IC50 was 9.71 µM and the IC90 is more than 100 µM.
For `CC[n+]1c(/C=C/N(C)c2ccccc2)n(-c2ccccc2)c2ccc(-c3nc4ccccc4s3)cc21` the same measures were 1.13 µM and 1.36 µM.
`O=C(OCC(=O)N1CCCCC1)c1cc2ccccc2cc1O`: the IC50 is 2.95 µM and the IC90 was 3.42 µM.
